Source: PubChem BioAssay AID1671276

Molecular target: Ephrin type-B receptor 4 (Homo sapiens) (UniProt P54760)
Assay: EPHB4 kinase inhibitors, dose response, biochemical, Z'-LYTE, FRET, protease-coupled, direct format (AID 1671276)
Conditions: Z'-LYTE FRET peptide phosphorylation

Ephrin type-B receptor 4 (Homo sapiens), sequence (P54760 whole entry, looked up): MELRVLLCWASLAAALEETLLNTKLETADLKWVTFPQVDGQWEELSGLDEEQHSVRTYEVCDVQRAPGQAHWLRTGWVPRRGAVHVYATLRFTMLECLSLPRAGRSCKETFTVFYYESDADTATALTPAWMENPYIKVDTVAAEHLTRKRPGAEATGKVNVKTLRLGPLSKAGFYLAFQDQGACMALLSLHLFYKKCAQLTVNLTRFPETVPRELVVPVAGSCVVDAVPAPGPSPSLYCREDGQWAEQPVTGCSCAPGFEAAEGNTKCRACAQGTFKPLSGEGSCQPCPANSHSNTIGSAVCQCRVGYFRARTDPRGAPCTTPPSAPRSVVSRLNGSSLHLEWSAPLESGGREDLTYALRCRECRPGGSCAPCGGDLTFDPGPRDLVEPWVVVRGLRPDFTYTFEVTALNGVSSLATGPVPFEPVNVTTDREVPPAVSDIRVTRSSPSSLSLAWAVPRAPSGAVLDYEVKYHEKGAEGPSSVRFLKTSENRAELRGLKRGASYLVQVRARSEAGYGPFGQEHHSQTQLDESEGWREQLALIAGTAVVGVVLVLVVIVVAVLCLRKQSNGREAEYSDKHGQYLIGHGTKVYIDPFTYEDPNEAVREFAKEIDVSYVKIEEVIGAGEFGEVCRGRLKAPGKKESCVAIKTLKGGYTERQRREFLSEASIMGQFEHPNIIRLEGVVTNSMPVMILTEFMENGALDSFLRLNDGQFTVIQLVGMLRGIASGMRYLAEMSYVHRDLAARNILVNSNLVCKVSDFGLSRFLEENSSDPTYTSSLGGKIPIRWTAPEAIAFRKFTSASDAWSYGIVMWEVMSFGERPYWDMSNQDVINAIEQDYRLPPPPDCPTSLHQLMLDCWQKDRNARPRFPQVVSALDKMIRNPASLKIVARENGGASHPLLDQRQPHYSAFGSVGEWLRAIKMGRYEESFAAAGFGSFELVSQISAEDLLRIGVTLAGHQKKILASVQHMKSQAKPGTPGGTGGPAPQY

IC50: 1.59 µM
SMILES: COc1cc2ncnc(Nc3cccc(Cl)c3)c2cc1OC
